Measurements as given in ChEMBL document CHEMBL1212814, “Polyamines in drug discovery: from the universal template approach to the multitarget-directed ligand design strategy” (J Med Chem, 2010).

Experiment: Inhibition of amyloid beta (1-40) aggregation by thioflavin T based fluorometric assay

| IC50 [µM] | SMILES |
| --- | --- |
| 5.93 | CCN(CCCCCCNC1=CC(=O)C(NCCCCCCN(CC)Cc2ccccc2OC)=CC1=O)Cc1ccccc1OC [MEMOQUIN] |
| 60.3 | CN(C)[C@@H]1C(O)=C(C(N)=O)C(=O)[C@@]2(O)C(O)=C3C(=O)c4c(O)cccc4[C@@](C)(O)[C@H]3C[C@@H]12 [TETRACYCLINE] |
